Results as given in ChEMBL document CHEMBL1157193, “Synthesis and anti-Trypanosoma cruzi activity of derivatives from nor-lapachones and lapachones” (Bioorg Med Chem, 2008).

System: Trypanosoma cruzi
Test: Trypanocidal activity against Trypanosoma cruzi Y blood stream trypomastigotes after 24 hrs
Assay type: functional, organism-based

`Cc1ccc(C)c(NC2C3=C(OC2(C)C)c2ccccc2C(=O)C3=O)c1` (stereo not drawn) showed an IC50 of 1760 µM.

`CC1(C)OC2=C(C(=O)C(=O)c3ccccc32)C1Nc1ccc(F)cc1` (stereo not drawn) was tested, and the IC50 was 2520 µM.

Work on `CC1(C)OC2=C(C(=O)C(=O)c3ccccc32)C1Nc1cccc(Cl)c1` (stereo not drawn) yielded an IC50 of 333 µM.

For `CC1(C)OC2=C(C(=O)C(=O)c3ccccc32)C1Nc1cccc(Br)c1` (stereo not drawn), the IC50 was 141 µM.

With `CC1(C)OC2=C(C(=O)C(=O)c3ccccc32)C1Nc1cccc([N+](=O)[O-])c1` (stereo not drawn) the IC50 was 86.3 µM.

Work on `CC1(C)OC2=C(C(=O)c3ccccc3C2=O)C1Nc1ccccc1` (stereo not drawn) yielded an IC50 greater than 4000 µM.

`CC1(C)OC2=C(C(=O)C(=O)c3ccccc32)C1Nc1ccc(Cl)cc1` (stereo not drawn) showed an IC50 of 384 µM.

In the case of `CC1(C)OC2=C(C(=O)C(=O)c3ccccc32)C1O` (stereo not drawn), the IC50 is reported as 212 µM.

Work on `COc1ccc(NC2C3=C(OC2(C)C)c2ccccc2C(=O)C3=O)cc1` (stereo not drawn) yielded an IC50 of 88.2 µM.

In the case of `CC1(C)CC(Nc2ccccc2)C2=C(O1)C(=O)c1ccccc1C2=O` (stereo not drawn), the IC50 is reported as 342 µM.

`CC1(C)CC2=C(O1)C1(CO1)c1ccccc1C2=O` (stereo not drawn) gave an IC50 greater than 4000 µM.

With `CC1(C)OC2=C(C(=O)C(=O)c3ccccc32)C1Nc1cccc(F)c1` (stereo not drawn) the IC50 was greater than 4000 µM.

For `CC1(C)OC2=C(C(=O)C(=O)c3ccccc32)C1Nc1ccc(Br)cc1` (stereo not drawn), the IC50 was 952 µM.

`CC1(C)OC2=C(C(=O)C(=O)c3ccccc32)C1Nc1ccc([N+](=O)[O-])cc1` (stereo not drawn) was tested, and the IC50 was 857 µM.

`CC1(C)OC2=C(C(=O)c3ccccc3C2=O)C1N=[N+]=[N-]` (stereo not drawn) was tested, and the IC50 was 179 µM.

Work on `CC1(C)CC2=C(O1)C(=O)c1ccccc1C2=O` yielded an IC50 greater than 4800 µM.

In the case of `CC1(C)CCC2=C(O1)C(=O)c1ccccc1C2=O` [ALPHA-LAPACHONE], the IC50 is reported as greater than 4800 µM.

`CC(C)=CCC1=C(O)C(=O)c2ccccc2C1=O` [LAPACHOL] gave an IC50 of 411 µM.
